Results on 27 compounds are retold here after PubChem BioAssay (NCI).

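Tested at 5 concentrations; 48 h exposure; 96-well plates; endpoints linearly interpolated, else capped at highest concentration. Here, GI50 denotes the concentration required for 50% inhibition of growth. TGI is the concentration that stops growth completely.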 Where only a bound is given, the exact number is not on record here.

One experiment deals with DU-145 prostate. Kind of experiment: NCI anticancer screen, dose series, 48 h.
As for `Cc1cnc(NCCCN(C)C)c2c1[nH]c1ccc3cc(O)ccc3c12`, the TGI came to 4.03 µM.
For `CC1CCc2nc[nH]c(=O)c21` (stereo not given), the GI50 is > 100 µM and the TGI is > 100 µM.
Take `CCOC1Oc2ccccc2C(=O)/C1=C/Nc1ccc(C(C)=O)cc1` (stereo not given): the GI50 was 29.6 µM and the TGI is > 100 µM.
Take `COC1/C=C/OC2(C)Oc3c(C)c(O)c4c(O)c(c(/C=N/Nc5ccc([N+](=O)[O-])cc5[N+](=O)[O-])c(O)c4c3C2=O)NC(=O)C(C)=C/C=C/C(C)C(O)C(C)C(O)C(C)C(OC(C)=O)C1C` (stereo not given): the GI50 is 2.55 µM and the TGI amounted to 9.32 µM.
For `C=CCO[C@H]1CO[C@H]2[C@@H]1OC[C@@H]2Oc1ccc(Nc2ccnc(Nc3ccc(O[C@H]4CO[C@H]5[C@@H]4OC[C@@H]5OCC=C)c(Cl)c3)n2)cc1Cl`, the GI50 is 1.69 µM and the TGI came to 3.13 µM.
As for `CCN(CC)N=Nc1c(C(N)=O)n[nH]c1C`, the TGI was > 100 µM.
On the same count and under the same terms, under `COc1ccc(CC2c3cc4c(cc3CCN2C)OCO4)c(C=O)c1OC` (stereo not given) stands > 100 µM.
As to `Cc1nc2sccn2c1-c1csc(Nc2ccccc2Cl)n1`, the GI50 is 7.87 µM and the TGI came to 68.8 µM.
Consider `Nc1nc(-n2c(-c3ccccc3)nc3c(Br)cc(Br)cc3c2=O)nnc1-c1cccc(Cl)c1Cl`, for which the GI50 is 27.3 µM and the TGI is > 100 µM.

The subject of another experiment is SR leukemia. As to the kind of experiment: NCI anticancer screen, dose series, 48 h.
Turning to `Cc1c(C(=O)CC(=O)C(=O)Nc2ccccc2C(F)(F)F)[n+](=O)c2ccccc2n1[O-]`, the TGI was 26.6 µM.
Still for that read-out and setting: for `C1=C2/CC[C@H](Sc3ccccc3)C2C2(CCCCC/1)OCCO2` (stereo not given in full) the value was > 100 µM; for `CCOC(=O)C(C)(C)Oc1ccc2c(-c3ccccc3)cc(=O)oc2c1`, 88.7 µM; for `O=C(Nc1nc2ccc([N+](=O)[O-])cc2s1)C(=O)C(C1OC(=O)c2ccccc21)[N+](=O)[O-]` (stereo not given), > 100 µM.

The next experiment relates to SNB-19 CNS. As to the kind of experiment: NCI anticancer screen, dose series, 48 h.
`Cc1cnc(NCCCN(C)C)c2c1[nH]c1ccc3cc(O)ccc3c12` showed a TGI of 3.12 µM.
On to `CC1CCc2nc[nH]c(=O)c21` (stereo not given), for which the GI50 is > 100 µM and the TGI is > 100 µM.
For the compound `Cc1c(C(=O)CC(=O)C(=O)Nc2ccccc2C(F)(F)F)[n+](=O)c2ccccc2n1[O-]`, the TGI was > 100 µM.
Same read-out and setting: for `Cc1cc(N(CCC#N)CCC#N)ccc1N=Nc1ccc(S(N)(=O)=O)cc1` the value was > 100 µM.
As for `CCOC1Oc2ccccc2C(=O)/C1=C/Nc1ccc(C(C)=O)cc1` (stereo not given), the GI50 is 42.2 µM and the TGI was > 100 µM.
As for `Cc1nc2c(ccc3ncccc32)[nH]1`, the TGI is > 100 µM.
Same read-out and setting: under `C1=C2/CC[C@H](Sc3ccccc3)C2C2(CCCCC/1)OCCO2` (stereo not given in full) stands > 100 µM.
As to `COC1/C=C/OC2(C)Oc3c(C)c(O)c4c(O)c(c(/C=N/Nc5ccc([N+](=O)[O-])cc5[N+](=O)[O-])c(O)c4c3C2=O)NC(=O)C(C)=C/C=C/C(C)C(O)C(C)C(O)C(C)C(OC(C)=O)C1C` (stereo not given), the GI50 was 3.92 µM and the TGI was determined as 18.1 µM.
As to `O=C(CCc1nc(=S)[nH][nH]1)Nc1cc(Cl)c(Cl)cc1Cl`, the TGI is > 100 µM.
Same read-out and setting: under `Nc1ccccc1S(=O)(=O)N(CC(=O)O)c1ccccc1` stands > 100 µM; under `Cc1cc(NS(=O)(=O)c2ccc(Nc3c4ccccc4nc4c(C(=O)N5CCN(CCOS(C)(=O)=O)CC5)cccc34)cc2)no1`, > 100 µM.
As to `C=CCO[C@H]1CO[C@H]2[C@@H]1OC[C@@H]2Oc1ccc(Nc2ccnc(Nc3ccc(O[C@H]4CO[C@H]5[C@@H]4OC[C@@H]5OCC=C)c(Cl)c3)n2)cc1Cl`, the GI50 was 2 µM and the TGI turned out to be 3.73 µM.
Take `CCN(CC)N=Nc1c(C(N)=O)n[nH]c1C`: the TGI was > 100 µM.
Still for that read-out and setting: for `COc1cc2ccnc([C@@H](OC(=O)c3ccccc3)c3ccc(OC)c(OC)c3OC)c2cc1OC` the value was > 100 µM.
The same measure, in the same setting: for `COc1ccc(CC2c3cc4c(cc3CCN2C)OCO4)c(C=O)c1OC` (stereo not given) the value was > 100 µM.
On the same count and under the same terms, under `O=C(O)CCNCCCNCCC(=O)O` stands > 100 µM.
Regarding `CC(=O)[CH-]C(=O)c1ccccc1.CC(=O)[CH-]C(=O)c1ccccc1.CN(C)c1ccc([O-])cc1.CN(C)c1ccc([O-])cc1.Cl.[Ti+4]`, the GI50 is 22 µM and the TGI was > 31.6 µM.
For `Cc1nc2sccn2c1-c1csc(Nc2ccccc2Cl)n1`, in that order: 10.3 µM and > 100 µM.
The corresponding values for `Nc1nc(-n2c(-c3ccccc3)nc3c(Br)cc(Br)cc3c2=O)nnc1-c1cccc(Cl)c1Cl` are 29.9 µM and > 100 µM.
Regarding `NC1=NCCC1(c1ccccc1)c1ccccn1` (stereo not given), the TGI was > 100 µM.
`CCOC(=O)CCC1(C(=O)OCC)CCCCC1=O` (stereo not given): the TGI is > 100 µM.
Take `COC(=O)c1ccccc1NC(=O)C(=O)Cc1nc2c3c(ccc2[nH]c1=O)C(=O)c1ccccc1C3=O`: the TGI was > 100 µM.
Same read-out and setting: for `CCOC(=O)C(C)(C)Oc1ccc2c(-c3ccccc3)cc(=O)oc2c1` the value was > 100 µM.
Same read-out and setting: under `CCCC1C(=O)CCc2c(OC)ccc(OC)c21` (stereo not given) stands > 100 µM; under `O=C(Nc1nc2ccc([N+](=O)[O-])cc2s1)C(=O)C(C1OC(=O)c2ccccc21)[N+](=O)[O-]` (stereo not given), > 100 µM.
Consider `CCC[CH2][Sn]([CH2]CCC)([S]c1cccc2cccnc12)[S]c1cccc2cccnc12`, for which the GI50 is 0.373 µM and the TGI was determined as 1.39 µM.
On to `COC(=O)C1(C(C)C)CCc2c(OC)ccc(OC)c2C1=O` (stereo not given), for which the TGI was > 100 µM.

The next experiment relates to HCT-15 colon. As to the kind of experiment: NCI anticancer screen, dose series, 48 h.
`Cc1cnc(NCCCN(C)C)c2c1[nH]c1ccc3cc(O)ccc3c12` gave a TGI of 17 µM.
With `CC1CCc2nc[nH]c(=O)c21` (stereo not given), the GI50 is > 100 µM and the TGI was > 100 µM.
As for `Cc1c(C(=O)CC(=O)C(=O)Nc2ccccc2C(F)(F)F)[n+](=O)c2ccccc2n1[O-]`, the TGI is 44.4 µM.
The same measure, in the same setting: for `Cc1cc(N(CCC#N)CCC#N)ccc1N=Nc1ccc(S(N)(=O)=O)cc1` the value was > 100 µM.
As to `CCOC1Oc2ccccc2C(=O)/C1=C/Nc1ccc(C(C)=O)cc1` (stereo not given), the GI50 is 17.4 µM and the TGI amounted to 46.3 µM.
For the compound `Cc1nc2c(ccc3ncccc32)[nH]1`, the TGI was > 100 µM.
Consider `COC1/C=C/OC2(C)Oc3c(C)c(O)c4c(O)c(c(/C=N/Nc5ccc([N+](=O)[O-])cc5[N+](=O)[O-])c(O)c4c3C2=O)NC(=O)C(C)=C/C=C/C(C)C(O)C(C)C(O)C(C)C(OC(C)=O)C1C` (stereo not given), for which the GI50 is 5.86 µM and the TGI is 31.1 µM.
In the case of `O=C(CCc1nc(=S)[nH][nH]1)Nc1cc(Cl)c(Cl)cc1Cl`, the TGI was > 100 µM.
